Results on 43 compounds are retold here after patent US11013236B2, “Pesticidal Flavobacterium strain and bioactive compositions metabolites and uses” (Marrone Bio Innovations, Inc., priority 2012, dated 2021).

One test deals with Xanthomonas campestris. Kind of test: Antimicrobial agar disc assay. Type of test: cell-based. Here is the method:
(§1) The pure 1-(4-hydroxyphenyl) pent-1-en-3-one (1) “polyketide MW 176” was tested against various microbial pathogens using agar disc assay.

The next test relates to Erwinia amylovora. Description: Antimicrobial agar disc assay. In kind it is cell-based. The protocol: as §1
The test system of another test is Bacillus cereus. Kind of test: Antimicrobial agar disc assay. In kind it is cell-based. The protocol:
as §1

The test system of test [1] is Avidovorax avenae subsp. citrulli. Kind of test: Antimicrobial agar disc assay. In kind it is cell-based. The protocol:
as §1

Test [2] relates to M. incognita. Kind of test: Greenhouse cone test of polyketide 1, tomato (cv. UC82) as host. To be noted: compared to water control. In kind it is in vivo, Meloidogyne incognita. Here is the method: The nematicidal activity of polyketide 1 (MW 176 compound) against root-knot nematodes was further assessed in greenhouse in cone tests using M. incognita and tomato (cv. UC82) as a host. The tomato seeds were germinated in vermiculate and 3-week-old seedlings were transferred to the cones containing mixture of sand and top soil (1:1). Two weeks after transplanting, tomato plants were treated with the samples. […] Four different concentrations (100, 10, 1, & 0.1 μg/mL) of the polyketide prepared in 4% methanol (MeOH) were dosed as 10 mL of soil drench into each pot. Each treatment was tested in 5 replicates. Following the drench each pot was inoculated with 1000 nematode eggs suspended in 1 mL of water. The dosing of the product was repeated after two weeks. Three weeks later, the inoculation test was terminated and the following parameters were scored: number of galls/root, gall index and fresh top weight.

Another test relates to M. hapla. Description: In vitro 96-well plate bioassay of purified peaks of fraction 3. In kind it is in vivo, Meloidogyne hapla. To be noted: 24 hour at 25° C. Here is the method: (§2) Once the purification of fraction 3 is complete and all of the desired peaks/compounds are collected as described above, each peak is tested in an in vitro 96-well plastic cell-culture plate extract bioassay in order to identify the peak/s that contain the desired active metabolite/s.
(§3) 15-20 nematodes in a […] water solution are exposed to […] of a 20 mg/ml peak concentrate (1.13 mg/ml total exposure) for a 24 hour period at 25° C. Once the incubation period is completed, results are recorded based on a visual grading of immotility of the J2s in each well treated with H492 purified peaks of H1 to H39, plus H29-A derived from fraction 3, each treatment is tested in four replicates. Three controls are included in each trial; one positive control (1% avid). and two negative controls (DMSO and water). Trial 1 (T1) was carried out using the method described above with M. hapla, trial 2 and 3 (T2 and T3) were carried out using the latter method with M. incognita (FIG. 22).

The subject of test [3] is M. incognita. The description is as above. To be noted: 24 hour at 25° C. In kind it is in vivo, Meloidogyne incognita. Here is the method: as §2, §3
Test [4] relates to nematode juveniles (J2) of M. incognita (Monsanto strain). Description: Dose response % immotility for synthesized polyketide, 6-well plate immobility bioassay. Type of test: in vivo, Meloidogyne incognita. To be noted: tested 0.14-1.69 mg/mL in DMSO; 24 h exposure, 24 h on water agar; FIG. 23. Here is the method: The synthetic polyketide (MW 176) was tested at several doses (concentrations tested were 0.14, 0.28, 0.42, 0.56, 0.84, 1.13, 1.69 mg/mL of polyketide in DMSO) in the 6-well plate immobility bioassay to find the optimal dose of this compound needed in order to detect nematicidal activity. In this particular assay the nematode juveniles (J2) of M. incognita (Monsanto strain) were first exposed to the tested samples in 96-well plate: 50 μl of water containing approximately 300 J2 were mixed with 3 μl of polyketide sample or controls (avid (2%) as positive control or DMSO and water as negative controls, respectively. After 24 h incubation, 20 μl of J2 suspension from each well was transferred into the wells of 6-well plates filled with water agar (3 mL of 1% agar per each well). The plates were left open for 10-15 min to allow the solutions to dry out. Afterwards, circles were drawn around the J2 suspension and initial numbers of J2 inside the circles were counted under the stereomicroscope. The plates were incubated for another 24 h and the numbers of J2 that remained immotile (i.e. were still present inside the circles) were counted using stereomicroscope. The % of nematode immotility was expressed as: [(number of immotile nematodes after 24 h incubation/initial number of J2)*100%].

The test system of the next test is nematodes (J2's). Kind of test: SAR motility bioassay of synthetic analogues. In kind it is in vivo. To be noted: 3 μL at 20 mg/ml into 50 μl with approximately 300 J2's, 24 hours, then 24 hour recovery on 1.5% water agar; average of 6 repetitions. Here is the method: To quickly understand which part of the 1-(4-hydroxyphenyl) pent-1-en-3-one (1) molecule (polyketide) plays a crucial role on the nematicidal activity, a series of structural analogues were synthesized and evaluated using motility test. This bioassay serves to distinguish the differences in efficacy by measuring the recovery and the mobility of the nematodes after being exposed to any given compound with 6 repetitions per treatment. This bioassay involves the following procedure: 3 μL (at 20 mg/ml) of the sample are dispensed into 50 μl of approximately 300 J2's in a 96-well plastic cell-culture plate. After 24 hours, 100-150 of the treated J2's were transferred into 6-well plates that contain 1.5% water agar. After drying of the test sample on the agar, the initial drop was marked and initial counts of the J2's were carried out. After another 24 hour recovery period, the immobilization of the juveniles were measured by counting the number of J2's that moved from the initial circle and an average of the 6 repetitions were calculated to get the percent immobilization of each sample.

`CCC(=O)/C=C/c1ccc(O)cc1` [Compound 1, 1-(4-hydroxyphenyl) pent-1-en-3-one]: the antimicrobial activity result in the test on Xanthomonas campestris was “moderate activity”; with Erwinia amylovora, “potent activity”; with Bacillus cereus, “moderate activity”; in [1] it was “moderate activity”. Moreover, the gall index entry is “significantly reduced” in the test with M. incognita [2] (0.1 mg/ml, 10 mL soil drench, 1st test) and “significantly reduced” in the test on M. incognita [2] (all tested dilutions, 2nd test). In addition, the “gall index and galls per root” value with M. incognita [2] (0.001 & 0.01 mg/ml, 10 mL soil drench, 1st test) is recorded as “significantly reduced”. The “Potency in in vitro assay (immotility of J2s)” value in the test with M. hapla and in the test with M. incognita [3] was “confirmed” in each case. Further, in test [4], the “optimal range required for good nematicidal activity (% immotility)” value is given as not below 0.5 mg/mL.
With `CC(=O)/C=C/c1ccccc1` [SAR-1, (E)-4-phenylbut-3-en-2-one], in the test with nematodes (J2's), the Average % immobility was determined as 99%.
The same measure, in the same setting: in the case of `O=C(/C=C/c1ccccc1)c1ccccc1` [SAR-2, Benzalacetophenone] it was 4%; in that of `CC(=O)/C=C/c1ccccc1O` [SAR-3, (E)-4-(2-hydroxyphenyl)but-3-en-2-one], 95%; in that of `CC(=O)/C=C/C=C/c1ccccc1` [SAR-4, (3E,5E)-6-phenylhexa-3,5-dien-2-one], 97%.
In the test with nematodes (J2's), `O=C(/C=C/C=C/c1ccccc1)c1ccccc1` [SAR-5, (2E,4E)-1,5-diphenylpenta-2,4-dien-1-one] gave an Average % immobility of 98%.
In the test on nematodes (J2's), `CCC(=O)/C=C/c1ccccc1O` [SAR-6, (E)-1-(2-hydroxyphenyl)pent-1-en-3-one] displayed an Average % immobility of 98%.
Still for that read-out and setting: in the case of `O=C(/C=C/c1ccccc1O)c1ccccc1` [SAR-7, (E)-3-(2-hydroxyphenyl)-1-phenylprop-2-en-1-one] it was 99%; in that of `CC(C)CC(=O)/C=C/c1ccccc1O` [SAR-8, (E)-1-(2-hydroxyphenyl)-5-methylhex-1-en-3-one], 100%; in that of `O=C(/C=C/c1ccc(O)cc1)c1ccccc1` [SAR-9, (E)-3-(4-hydroxyphenyl)-1-phenylprop-2-en-1-one], 100%.
Still for that read-out and setting: next, `CC(C)CC(=O)/C=C/c1ccc(O)cc1` [SAR-10, (E)-1-(4-hydroxyphenyl)-5-methylhex-1-en-3-one]: 96%.
Still for that read-out and setting: next, `CC(=O)/C=C/c1cccc(O)c1` [SAR-11, (E)-4-(3-hydroxyphenyl)but-3-en-2-one]: 99%; `CC(=O)/C=C/c1ccccc1O` [SAR-12, (E)-4-(2-hydroxyphenyl)but-3-en-2-one]: 99%.
In the test on nematodes (J2's), `O=Cc1ccccc1OCC(=O)c1ccccc1` [SAR-13, 2-(2′-phenyl-2-oxoethoxy) benzaldehyde] came in with an Average % immobility of 74%.
In the test on nematodes (J2's), `CC(=O)/C(C)=C/c1ccccc1O` [SAR-14, (E)-4-(2-hydroxyphenyl)-3-methylbut-3-en-2-one] had an Average % immobility of 97%.
In the case of `CC/C=C/C(=O)c1ccccc1` [SAR-15, (E)-1-phenylpent-2-en-1-one], the Average % immobility in the test with nematodes (J2's) amounted to 20%.
The same measure, in the same setting: next, `CC/C=C\CC/C=C/C(C)=O` [SAR-16, (3E,7Z)-deca-3,7-dien-2-one]: 94%; `O=C(/C=C/c1cccc(O)c1)/C=C/c1cccc(O)c1` [SAR-18, (1E,4E)-1,5-bis(3-hydroxyphenyl) penta-1,4-dien-3-one]: 23%; `O=C(/C=C/Cc1ccccc1)c1ccccc1` [SAR-19, (E)-1,4-diphenylbut-2-en-1-one]: 64%.
Compound `O=C(/C=C/Cc1ccccc1)c1ccc(O)cc1` [SAR-20, (E)-1-(4-hydroxyphenyl)-4-phenylbut-2-en-1-one] had an Average % immobility in the test on nematodes (J2's) of 28%.
On the same count and under the same terms, in the case of `C/C(=C\c1cccc(O)c1)C(=O)/C=C/c1cccc(O)c1` [SAR-21, (1E,4E)-1,5-bis(3-hydroxyphenyl)-2-methylpenta-1,4-dien-3-one] it was 12%.
On the same count and under the same terms, in the case of `O=C(/C=C/c1cccc(O)c1)c1ccccc1` [SAR-22, (E)-3-(3-hydroxyphenyl)-1-phenylprop-2-en-1-one] it was 70%; in that of `CCC(=O)/C=C/c1ccccc1` [SAR-23, (E)-1-phenylpent-1-en-3-one], 80%.
On the same count and under the same terms, next, `CC(=O)/C(C)=C/c1ccc(O)cc1` [SAR-24, (E)-4-(4-hydroxyphenyl)-3-methylbut-3-en-2-one]: 80%; `CC(C)CC(=O)/C=C/c1ccccc1` [SAR-25, (E)-5-methyl-1-phenylhex-1-en-3-one]: 79%; `O=C(CBr)c1ccccc1` [SAR-26, 2-bromo-1-phenylethanone]: 50%.
With `CC(C)CC(=O)/C=C/c1cccc(O)c1` [SAR-27, (E)-1-(3-hydroxyphenyl)-5-methylhex-1-en-3-one], the Average % immobility with nematodes (J2's) was found to be 78%.
On the same count and under the same terms, in the case of `CC(=O)/C=C/c1ccc(O)cc1` [SAR-28, (E)-4-(4-hydroxyphenyl)but-3-en-2-one] it was 78%; in that of `O=Cc1cccc(O)c1` [SAR-29, 3-hydroxybenzaldehyde], 70%.
The same measure, in the same setting: next, `O=Cc1ccc(O)cc1` [SAR-30, 4-hydroxybenzaldehyde]: 58%; `O=Cc1ccccc1O` [SAR-31, 2-hydroxybenzaldehyde]: 58%.
Still for that read-out and setting: in the case of `O=Cc1ccccc1` [SAR-32, Benzaldehyde] it was 65%.
Take `CCCCCCCCC1CCC(=O)O1` (stereo not shown) [SAR-33, γ-dodecalactone]: the Average % immobility with nematodes (J2's) was 63%.
In turn, `CCCCC1CCC(=O)O1` (stereo not shown) [SAR-34, γ-octalactone] displayed an Average % immobility in the test on nematodes (J2's) of 21%.
On the same count and under the same terms, next, `CCCCCCC(C)=O` [SAR-35, 2-octanone]: 33%; `CCCCCC(C)=O` [SAR-36, 2-heptanone]: 21%.
The same measure, in the same setting: next, `CCCCCCCCCC(C)=O` [SAR-37, 2-undecanone]: 67%.
Same read-out and setting: next, `CC/C=C\CCC=O` [SAR-38, cis-4-heptenal]: 21%; `CC(=O)CC(C)C` [SAR-39, 4-methyl-2-pentanone]: 54%.
As for `CC(C)C=O` [SAR-40, iso-butyraldehyde], the Average % immobility with nematodes (J2's) is on record as 79%.
Same read-out and setting: next, `CC(=O)CC(C)(C)O` [SAR-41, 4-hydroxy-4-methylpentanone]: 21%.
Same read-out and setting: next, `COc1ccccc1C=O` [SAR-42, o-anisaldehyde]: 8%.
Same read-out and setting: next, `CCC(C)=O` [SAR-43, 2-butanone]: 21%.
